The values below are quoted from earlier work in PubChem BioAssay AID1259409 (Chemical Carcinogenesis Research Information System (CCRIS), 2018).

In the data set the test system is rodent chemically induced tumor inhibition, incidence and multiplicity. In words: CCRIS tumor inhibitor studies. Particulars: Carcinogen: AZOXYMETHANE, 25843-45-2, Dose [Inhibitor]: 0, 5 MG/G IN DIET FOR 22 WK BEGINNING 3 D POST LAST CARCINOGEN DOSE (STUDY DURATION: 25 WK), Route [Inhibitor]: ORAL, Species: RAT, Strain/Sex: F344/MALE, Dose [Carcinogen]: 15 MG/KG BW 2/WK FOR 3 WK, Promoter: NONE USED.

On to `CC(C)[C@@H]1CC[C@@H](C)C[C@H]1O`, for which the “tumour outcome (control, treated, inhibition, significance)” value reads like this: (Target Tissue: Type of Lesion: DUODENUM: ADENOCARCINOMA) 50%, 42%, 16%, not significant; (Target Tissue: Type of Lesion: LARGE BOWEL: ADENOMATOUS POLYP) 82%, 88%, -7%, not significant.
